Where a name gives a salt, the structure may show the parent alone.
What follows are compounds tested against P-gp (ABCB1) ATPase (Homo sapiens, UniProt P08183) (assay: Stimulation of Pgp ATPase activity at 200 uM by Pgp-Glo assay system relative to control). Conditions: read-out: Fold change.
Chain of P-gp (ABCB1) ATPase (P08183 whole entry): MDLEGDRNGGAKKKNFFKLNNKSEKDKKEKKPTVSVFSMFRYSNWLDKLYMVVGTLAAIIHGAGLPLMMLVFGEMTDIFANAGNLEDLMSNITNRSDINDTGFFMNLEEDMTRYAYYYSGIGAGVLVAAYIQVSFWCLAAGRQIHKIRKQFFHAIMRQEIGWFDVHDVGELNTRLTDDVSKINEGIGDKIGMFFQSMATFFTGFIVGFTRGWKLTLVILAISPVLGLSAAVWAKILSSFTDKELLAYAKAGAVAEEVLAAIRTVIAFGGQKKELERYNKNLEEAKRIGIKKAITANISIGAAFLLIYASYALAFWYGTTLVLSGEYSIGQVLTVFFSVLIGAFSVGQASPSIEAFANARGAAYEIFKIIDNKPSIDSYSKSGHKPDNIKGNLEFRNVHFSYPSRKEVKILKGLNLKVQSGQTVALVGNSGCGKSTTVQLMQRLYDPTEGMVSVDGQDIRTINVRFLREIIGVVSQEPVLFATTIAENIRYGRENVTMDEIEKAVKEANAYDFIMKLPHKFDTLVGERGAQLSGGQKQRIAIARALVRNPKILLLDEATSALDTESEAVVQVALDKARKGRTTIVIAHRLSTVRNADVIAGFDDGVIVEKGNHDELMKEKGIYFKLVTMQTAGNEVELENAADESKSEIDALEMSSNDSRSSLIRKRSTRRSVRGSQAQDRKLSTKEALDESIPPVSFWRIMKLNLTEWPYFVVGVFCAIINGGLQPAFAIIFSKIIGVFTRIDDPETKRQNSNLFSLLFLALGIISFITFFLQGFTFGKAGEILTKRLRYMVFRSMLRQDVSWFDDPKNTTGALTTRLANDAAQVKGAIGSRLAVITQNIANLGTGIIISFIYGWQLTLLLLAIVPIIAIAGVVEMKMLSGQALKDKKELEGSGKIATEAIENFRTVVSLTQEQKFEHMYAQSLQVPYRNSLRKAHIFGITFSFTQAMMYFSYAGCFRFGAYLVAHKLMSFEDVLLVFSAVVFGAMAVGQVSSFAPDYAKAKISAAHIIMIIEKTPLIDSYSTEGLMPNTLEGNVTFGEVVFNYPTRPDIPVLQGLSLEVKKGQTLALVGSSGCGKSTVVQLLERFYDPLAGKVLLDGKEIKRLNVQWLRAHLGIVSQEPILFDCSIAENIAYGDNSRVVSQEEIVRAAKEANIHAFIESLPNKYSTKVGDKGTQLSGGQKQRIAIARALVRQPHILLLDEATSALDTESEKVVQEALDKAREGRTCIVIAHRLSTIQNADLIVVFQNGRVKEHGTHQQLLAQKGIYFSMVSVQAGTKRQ
In the case of `CCC(=O)C1(c2cccc(O)c2)CCN(C)CC1` [KETOBEMIDONE OXALATE], the fold induction at 200 µM is reported as 4.89. `CCOC(=O)C1(c2ccccc2)CCN(C)CC1` [PETHIDINE OXALATE] was tested, and the fold induction at 200 µM was 1.78. Work on `CCOC(=O)C1(c2cccc(O)c2)CCN(C)CC1` [BEMIDONE] yielded a fold induction at 200 µM of 2.64. For `CCC(=O)C1(c2ccccc2)CCN(C)CC1`, the fold induction at 200 µM was 1.37.

From ChEMBL document CHEMBL1145568, “Opioids and efflux transporters. Part 3: P-glycoprotein substrate activity of 3-hydroxyl addition to meperidine analogs” (Bioorg Med Chem Lett, 2008)
